From patent publication US20200129531A1, “USE OF WITHANIA SOMNIFERA EXTRACT TO PROTECT AGAINST AIR POLLUTION RELATED DISEASES” (DSM IP Assets B.V., priority 2017, published 2020)

What was measured:
MCP-1 = MCP-1 secretion of A549 cells treated with Diesel Particulate Matter; format: cell-based, human; details: for effect on PM-induced MCP-1 secretion (in words): A549; for MCP-1 / MCP-1 % of PM + DMSO: Table 9, A549, 24 h
Excerpt: The human bronchial epithelial cell line BEAS-2B was from ATCC (American Type Culture Collection, Manassas, Va.) and cultured in Bronchial Epithelial cell Growth Medium (BEGM, Lonza, Wakersville, Md.) in CellBIND® surface plastic flasks (Corning Inc., Corning, N.Y.). The adenocarcinomic human alveolar basal epithelial A549 cell line was obtained from ATCC and cultured in Kaighn's Modification of Ham's F-12 Medium (F-12K medium) (Life Technologies, USA), supplemented with 10% FBS (Sigma, Saint-Louis, Mo.). These cells were cultured at 37° C. in a humidified atmosphere containing 5% CO2. BEAS-2B cells were seeded in 12-well CellBIND® surface culture plates (Corning Inc.) at 3 to 4×10^5 cells per well. A549 cells were seeded in 12-well plates at 2×10^5 cells per well. […] This dilution was twofold further diluted for the assay. After 24 h, cells were treated with the diluted Diesel Particulate Matter at 100 μg/ml and in the presence of different concentrations of Withania somnifera extracts, other plant extracts, fractions and compounds as indicated. The final DSMO concentrations were 0.175%. Untreated cells or cells treated with 0.175% DMSO were used as controls. After 24 h, cell supernatants were collected.

IL-6 [1] = experiment: IL-6 secretion of A549 cells treated with Diesel Particulate Matter; format: cell-based, human; details: for effect on PM-induced IL-6 secretion (in words): A549; for IL-6 / IL-6 % of PM + DMSO: Table 5, A549, 24 h
Excerpt: (§1) The human bronchial epithelial cell line BEAS-2B was from ATCC (American Type Culture Collection, Manassas, Va.) and cultured in Bronchial Epithelial cell Growth Medium (BEGM, Lonza, Wakersville, Md.) in CellBIND® surface plastic flasks (Corning Inc., Corning, N.Y.). The adenocarcinomic human alveolar basal epithelial A549 cell line was obtained from ATCC and cultured in Kaighn's Modification of Ham's F-12 Medium (F-12K medium) (Life Technologies, USA), supplemented with 10% FBS (Sigma, Saint-Louis, Mo.). These cells were cultured at 37° C. in a humidified atmosphere containing 5% CO2.
(§2) BEAS-2B cells were seeded in 12-well CellBIND® surface culture plates (Corning Inc.) at 3 to 4×10^5 cells per well. A549 cells were seeded in 12-well plates at 2×10^5 cells per well.
(§3) Diesel Particulate Matter (Standard Reference Material SRM 1650b, National Institute of Standards & Technology, NIST, Gaithersburg, Md.) at 80 mg/ml DMSO (100%) were sonicated for 5 min and thereafter diluted 400 fold in medium. This dilution was twofold further diluted for the assay.
(§4) After 24 h, cells were treated with the diluted Diesel Particulate Matter at 100 μg/ml and in the presence of different concentrations of Withania somnifera extracts, other plant extracts, fractions and compounds as indicated. The final DSMO concentrations were 0.175%.
(§5) Untreated cells or cells treated with 0.175% DMSO were used as controls. After 24 h, cell supernatants were collected.
(§6) The concentrations of IL-6 and IL-8 in the supernatants were determined by Luminex kits (BIO-RAD Laboratories, Hercules, Calif.) and used in the LiquiChip Workstation IS 200 (Qiagen, Hilden, Germany). The data were evaluated with the LiquiChip Analyser software (Qiagen).

Nrf2 = experiment: Luciferase reporter assay using H411E-ARE8L cells (Nrf2 activation)
Experimental: Luciferase Reporter Assay Using H411E-ARE8L Cells:
The medium for H411E-ARE8L cells was Dulbecco's Modified Eagle Medium (DMEM) high glucose containing heat inactivated 10% fetal bovine Serum (FBS). The media was exchanged every two to three-days. The DMEM assay medium used charcoal treated FBS (DMEMct). The transactivation assay was performed in 96 well plates. The plates were seeded with approximately 40′000 cells per well in 100 μl DMEMct and incubated over night at 37° C. Then the test compounds were diluted in DMEDct and given to the cells as described below. The cells were incubated for at least further 16 h at 37° C. and 5% CO2. Cells were equilibrated to room temperature. Lysis of the cells was done by adding 100 μL lysis solution, Steady-Glo© luciferase buffer according to the manufacturer (Promega) containing 0.5 mM DTT per well and incubated for 10 min at room temperature with gentle shaking. The luminescence was measured within 2 hours after incubation on a luminometer (Mithras, Berthold Technologies).
The negative control were cells in 0.5% DMSO.
All extracts, fractions and pure compounds were tested for concentrations that induce toxicity. Non-toxic concentrations were then selected for treating cells as describes in the methods section.

BEAS-2B cells = experiment: Toxicity / cell survival of BEAS-2B cells; format: cell-based, human; details: at concentrations higher than 0.3 μg/ml
Experimental: (§7) Cell survival assays of the BEAS-2B and A549 cells were performed with AlamarBlue® Cell Viability Reagent (ThermoFisher Scientific) according to the protocol of the manufacturer. Non-toxic concentrations of the extracts, fractions and single compounds were selected for the assays.

IL-8 = IL-8 secretion of A549 cells treated with Diesel Particulate Matter; format: cell-based, human; details: for IL-8 / IL-8 % of PM + DMSO: Table 7, A549, 24 h
Excerpt: as §1, §2, §3, §4, §5, §6

PGE2 = PGE2 secretion of BEAS-2B cells treated with Diesel Particulate Matter; format: cell-based, human; details: for PGE2 / PGE2 % of PM + DMSO: Table 10, BEAS-2B, 24 h
Excerpt: as §1, §2, §3, §4, §5
Secreted PGE2 was determined by Enzyme Immuno Assay (EIA) (Cayman Chemicals, Ann Harbor, […].).

IL-6 [2] = experiment: IL-6 secretion of BEAS-2B cells treated with Diesel Particulate Matter; format: cell-based, human; details: for IL-6 / IL-6 % of PM + DMSO: 24 h
Excerpt: as §1, §2, §3, §4, §5, §6

A549 cells = experiment: Toxicity / cell survival of A549 cells; format: cell-based, human; details: concentrations higher than 0.31 μg/ml
Experimental: as §7

[3] = Table 3, 0.3125 μg/ml + PM 100 μg/ml
[4] = Table 3, 10 μg/ml + PM 100 μg/ml

Which “effect on PM-induced MCP-1 secretion (in words)” value (MCP-1) does the source give for `CC1=C(CO)C(=O)O[C@@H]([C@@H](C)[C@H]2CC[C@H]3[C@@H]4C[C@H]5O[C@]56[C@@H](O)C=CC(=O)[C@]6(C)[C@H]4CC[C@]23C)C1` [Withaferin A, withaferin A] here?
Its value is “significant decrease”.

What about the MCP-1 (MCP-1; 0.3125 μg/ml + PM 100 μg/ml) of the same molecule?
The MCP-1 was 632 pg/mL.

And the “MCP-1 % of PM + DMSO” value (MCP-1; 0.3125 μg/ml + PM 100 μg/ml)?
Its value is 66%.

And the “effect on PM-induced IL-6 secretion (in words)” value (IL-6 [1])?
The value was “decrease”.

What about the IL-6 (IL-6 [1]; 0.3125 μg/ml + PM 100 μg/ml) of the same molecule?
Its IL-6 is 3.5 pg/mL.

What about the “IL-6 % of PM + DMSO” value (IL-6 [1]; 0.3125 μg/ml + PM 100 μg/ml) of the same molecule?
The value was 29%.

And the “Nrf-2 activity, Average” value (Nrf2; Conc. final 0.28 μg/ml)?
Its value is 32053 relative units of luciferase fluorescence.

What about the “toxicity to BEAS-2B cells” value (BEAS-2B cells) of the same molecule?
The value was “toxic”.

What about the “inhibition of IL-8 secretion (in words)” value (IL-8; A549, PM-induced, 0.31 μg/ml) of the same molecule?
Its value is “highest inhibition of the pure compounds”.

What about the IL-8 (IL-8; 0.3125 μg/ml + PM 100 μg/ml) of the same molecule?
Its IL-8 is 106.7 pg/mL.

What about the “IL-8 % of PM + DMSO” value (IL-8; 0.3125 μg/ml + PM 100 μg/ml) of the same molecule?
The value was 39%.

What about the PGE2 (PGE2; 0.3125 μg/ml + PM 100 μg/ml) of the same molecule?
The PGE2 was 33.2 pg/mL.

What about the “PGE2 % of PM + DMSO” value (PGE2; 0.3125 μg/ml + PM 100 μg/ml) of the same molecule?
The value was 87%.

What about the “effect on PM-induced IL-6 secretion (in words)” value (IL-6 [2]; 0.3 μg/ml) of the same molecule?
Its value is “lowered”.

What about the IL-6 (IL-6 [2]; [3]) of the same molecule?
The IL-6 was 19.4 pg/mL.

And the “IL-6 % of PM + DMSO” value (IL-6 [2]; [3])?
The value was 77%.

And the “toxicity to A549 cells” value (A549 cells)?
The value was “toxic”.

For 12-deoxywithastramonolide, which “effect on PM-induced MCP-1 secretion (in words)” value (MCP-1) is on record?
The value was “significant decrease”.

What about the MCP-1 (MCP-1; 10 μg/ml + PM 100 μg/ml) of the same molecule?
The MCP-1 was 646.3 pg/mL.

And the “MCP-1 % of PM + DMSO” value (MCP-1; 10 μg/ml + PM 100 μg/ml)?
The value was 74%.

And the “effect on PM-induced IL-6 secretion (in words)” value (IL-6 [1])?
Its value is “decrease”.

And the IL-6 (IL-6 [1]; 10 μg/ml + PM 100 μg/ml)?
Its IL-6 is 9.5 pg/mL.

What about the “IL-6 % of PM + DMSO” value (IL-6 [1]; 10 μg/ml + PM 100 μg/ml) of the same molecule?
Its value is 75%.

What about the “Nrf-2 activity, Average” value (Nrf2; Conc. final 22.73 μg/ml) of the same molecule?
Its value is 33869 relative units of luciferase fluorescence.

And the “Nrf-2 activity, Normalized data” value (Nrf2; Conc. final 22.73 μg/ml, R-sulforaphane set to 1.0, DMSO 0)?
The value was 1.1701.

And the “effect on IL-8 secretion (in words)” value (IL-8; A549, PM-induced)?
Its value is “significant inhibition”.

And the IL-8 (IL-8; 10 μg/ml + PM 100 μg/ml)?
Its IL-8 is 208.3 pg/mL.

And the “IL-8 % of PM + DMSO” value (IL-8; 10 μg/ml + PM 100 μg/ml)?
Its value is 69%.

What about the “effect on PGE2 secretion compared to PM with DMSO (in words)” value (PGE2; PM-treated BEAS-2B) of the same molecule?
Its value is “significant decrease”.

And the PGE2 (PGE2; 10 μg/ml + PM 100 μg/ml)?
Its PGE2 is 28.3 pg/mL.

And the “PGE2 % of PM + DMSO” value (PGE2; 10 μg/ml + PM 100 μg/ml)?
Its value is 74%.

What about the IL-6 (IL-6 [2]; [4]) of the same molecule?
Its IL-6 is 51.9 pg/mL.

What about the “IL-6 % of PM + DMSO” value (IL-6 [2]; [4]) of the same molecule?
The value was 207%.
